Measurements: patent US5552382A (priority 1994, dated 1996)
Converted amounts (≈) assume the structure as drawn.

Experiments:
HIV = conditions: cited from earlier work; for Dose protecting against / abrogating HIV infection in vitro: literature figures, equivalent of the % or μM value
IIIB strain of HIV = assay: microbe, parasite or virus in culture; type: cell-based
Protocol: The following test procedure was employed.
In a classical virology assay aimed at testing the antiviral activity of a drug, the virus is added in the presence of a drug to target cells for the determined period of inoculation time, e.g., 1 hour, and then nonadsorbed virus is washed away and inoculated cells are exposed again to a fresh drug. After several days, a period corresponding to the replication cycle of the virus, the dose-effect of the drug is tested by measuring the quantity of newly-synthesized virus in the culture supernates of inoculated cells. But this strategy is not truly representative of the in vivo situation. It is clear that in a real-life situation the virus is not "flushed" from a human body prior to drug administration. […] In the present assay, virus, drug and cells were left without washing in the culture until tested for virus production 3 days later. This period of time presents one full cycle of HIV replication, Dimitrov et al., J. Virol. 67:2182-90, 1993. It is believed that this type of approach represents more closely and simulates the situation which exists in vivo.
p24 ELISA. Reduction of productive infection was evaluated by a commercial ELISA kit for viral core gag p24 product according to the manufacturer's instructions (Coulter, Hialeah, Fla.) as follows. Detergent-lysed samples of viral culture medium that were incubated in wells (96-well format), precoated with anti-p24 antibody, were screened for gag antigen by adding biotin-labeled anti-p24 antibody followed by streptavidin-peroxidase conjugate. The amount of captured p24 was measured by comparing the optical density (450 nm) of peroxidase substrate with supplied standards containing known amounts of p24. The lower limit of reliable sensitivity of this kit is 7.8 pg/ml.

MT-4 lymphocytes = conditions: MT-4 cells, 3 days continuous exposure; approximate log10 concentration
[1] = 30 minutes in an autoclave; cited from earlier work
[2] = MT-4 cells, HIV IIIB, 3 days, p24 ELISA, approximate log10 concentration

Row | Molecule | Dose protecting against / abrogating HIV infection in vitro (HIV) [µg/mL] | Concentration reported to abrogate HIV infection (HIV; literature in vitro studies) [µM] | IC50 (IIIB strain of HIV; Human immunodeficiency virus 1, MT4, 72 h, MT-4 cells, HIV IIIB, 3 days, p24 ELISA, approximate log10 concentration, read-out: IC50 (50% inhibition of HIV infection)) [µg/mL] | Dose giving complete protection against HIV infection (IIIB strain of HIV; MT-4 cells, HIV IIIB) [µg/mL] | IC100 (100% inhibition of HIV infection) (IIIB strain of HIV; [2]) [µg] | CC100 (cytotoxicity) (MT-4 lymphocytes) [µg] | Dose at which the protective effect was generally observed in vitro (HIV; literature review of in vitro investigations) [%] | IC50 (50% inhibition of HIV infection) (IIIB strain of HIV; [2]) [ng] | Retention of biological activity after autoclaving [1] | Cytopathic effect (membrane ballooning, syncytia) (IIIB strain of HIV; wells where viral replication was completely inhibited)
1 | Cc1cc2c(C(C)C)c(O)c(O)c(C=O)c2c(O)c1-c1c(C)cc2c(C(C)C)c(O)c(O)c(C=O)c2c1O [Gossypol, gossypol] | 50 | 100 | ~1 (≈ 1.93 µM) | 10 | ~10 | ~10 | – | – | – | –
2 | nonoxynol-9 | 50 | – | – | 10 | ~10 | ~10 | 0.05 | ~10 | – | –
3 | gramicidin S | – | – | – | – | – | – | – | – | retains its biological activity | –
4 | gramicidin | – | – | – | – | ~0.01 | – | – | – | – | No signs of cytophatic effect were observed
